Tests used:
Carbonic anhydrase = target: T1, Carbonic anhydrase (Stylophora pistillata, UniProt C0IX24)
T1 sequence (C0IX24 whole entry): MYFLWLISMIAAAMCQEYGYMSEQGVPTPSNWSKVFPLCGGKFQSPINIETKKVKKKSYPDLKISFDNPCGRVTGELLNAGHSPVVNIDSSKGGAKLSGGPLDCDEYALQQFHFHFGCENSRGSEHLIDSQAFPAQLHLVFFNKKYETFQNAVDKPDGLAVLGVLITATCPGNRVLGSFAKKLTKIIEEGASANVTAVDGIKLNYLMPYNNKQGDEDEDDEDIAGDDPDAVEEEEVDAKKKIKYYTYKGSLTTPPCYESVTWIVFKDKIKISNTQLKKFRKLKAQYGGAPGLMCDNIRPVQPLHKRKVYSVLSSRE

Alpha carbonic anhydrase = target: T2, Alpha carbonic anhydrase (Stylophora pistillata, UniProt B5SU02)
T2 sequence (B5SU02 whole entry): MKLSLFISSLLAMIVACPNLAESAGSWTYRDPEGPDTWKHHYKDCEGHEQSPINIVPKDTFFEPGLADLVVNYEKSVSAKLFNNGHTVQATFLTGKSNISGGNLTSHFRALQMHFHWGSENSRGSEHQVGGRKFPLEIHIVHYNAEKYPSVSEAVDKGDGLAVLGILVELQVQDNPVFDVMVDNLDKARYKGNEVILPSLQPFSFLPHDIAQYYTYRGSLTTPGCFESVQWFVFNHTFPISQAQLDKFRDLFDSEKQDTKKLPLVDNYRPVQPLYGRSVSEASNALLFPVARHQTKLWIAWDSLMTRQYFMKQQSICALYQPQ

Carbonic anhydrase 6 = Carbonic anhydrase 6 (Homo sapiens, UniProt P23280)
Carbonic anhydrase 6, sequence (P23280 whole entry): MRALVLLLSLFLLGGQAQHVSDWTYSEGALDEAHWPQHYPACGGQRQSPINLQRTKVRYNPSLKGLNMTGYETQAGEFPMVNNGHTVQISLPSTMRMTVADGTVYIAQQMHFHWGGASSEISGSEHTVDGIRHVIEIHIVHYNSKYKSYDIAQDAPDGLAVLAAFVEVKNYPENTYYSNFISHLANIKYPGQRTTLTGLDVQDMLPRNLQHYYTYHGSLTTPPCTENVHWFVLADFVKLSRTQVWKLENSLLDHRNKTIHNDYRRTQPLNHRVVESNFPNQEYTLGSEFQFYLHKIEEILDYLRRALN

Carbonic anhydrase 1 = Carbonic anhydrase 1 (Homo sapiens, UniProt P00915)
Carbonic anhydrase 1, sequence (P00915 whole entry): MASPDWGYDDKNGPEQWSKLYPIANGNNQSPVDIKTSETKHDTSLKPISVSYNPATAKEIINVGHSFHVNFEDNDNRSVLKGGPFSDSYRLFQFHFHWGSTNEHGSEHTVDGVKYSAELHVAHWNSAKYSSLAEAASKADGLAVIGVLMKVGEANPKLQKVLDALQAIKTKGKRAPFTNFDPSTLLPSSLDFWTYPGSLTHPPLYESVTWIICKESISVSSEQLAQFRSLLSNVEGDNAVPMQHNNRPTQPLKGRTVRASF

| Structure (SMILES) | Ki (Carbonic anhydrase) | Ki (Alpha carbonic anhydrase) | Ki (Carbonic anhydrase 6) | Ki (Carbonic anhydrase 1) |
| --- | --- | --- | --- | --- |
| NNc1ccccc1S(N)(=O)=O | 0.65 µM | – | – | – |
| Nc1ccc(S(N)(=O)=O)cc1I | 0.695 µM | – | – | – |
| Nc1ccc(S(N)(=O)=O)cc1Br | 0.54 µM | – | – | – |
| NCCc1ccc(S(N)(=O)=O)cc1 | 0.577 µM | – | – | – |
| Nc1ccc(S(=O)(=O)NCCc2ccc(S(N)(=O)=O)cc2)cc1 | 0.902 µM | – | – | – |
| NS(=O)(=O)c1ccc(S(=O)(=O)Nc2cccc3c(Cl)c[nH]c23)cc1 | 0.394 µM | – | – | – |
| NS(=O)(=O)c1nnc(NS(=O)(=O)c2ccccc2)s1 [BENZOLAMIDE] | 0.214 µM | – | – | – |
| CCN[C@H]1CN(CCCOC)S(=O)(=O)c2sc(S(N)(=O)=O)cc21 [BRINZOLAMIDE] | 0.169 µM | – | – | – |
| Br [BROMIDE] | 960 µM | 9.7 µM | 730 µM | – |
| Cc1ccc(-c2cc(C(F)(F)F)nn2-c2ccc(S(N)(=O)=O)cc2)cc1 [CELECOXIB] | 0.69 µM | – | – | – |
| N#CO [CYANATE] | 690 µM | 590 µM | 690 µM | – |
| F [FLUORIDE ION] | 920 µM | 620 µM | 600 µM | – |
| Cl [HYDROCHLORIC ACID] | 530 µM | 500 µM | 720 µM | – |
| I [IODIDE] | 33000 µM | 9 µM | 810 µM | – |
| NCc1ccc(S(N)(=O)=O)cc1 [MAFENIDE] | 0.508 µM | – | – | – |
| O=[N+]([O-])O [NITRIC ACID] | 990 µM | 560 µM | 760 µM | – |
| O=NO [NITROUS ACID] | 3150 µM | 770 µM | 820 µM | – |
| Cc1ccc(S(N)(=O)=O)cc1 [P-TOLUENESULFONAMIDE] | 0.516 µM | – | – | – |
| OB(O)c1ccccc1 [PHENYLBORONIC ACID] | 8.1e-06 µM | 0.00068 µM | 0.00082 µM | 58.6 nM |
| O=C1NS(=O)(=O)c2ccccc21 [SACCHARIN] | 0.104 µM | – | 0.935 µM | – |
| NS(=O)(=O)O [SULFAMATE] | 8.5e-06 µM | 0.00081 µM | – | 0.021 nM |
| NS(N)(=O)=O [SULFAMIDE] | 5.7e-06 µM | – | – | – |
| O=S(O)O [SULFUROUS ACID] | 430 µM | 410 µM | 14200 µM | – |
| S1SSSSSSS1 [SULFUR] | 3940 µM | 580 µM | 710 µM | 600 nM |

Reference: ChEMBL document CHEMBL1641500, “Carbonic anhydrase inhibitors. Inhibition studies with anions and sulfonamides of a new cytosolic enzyme from the scleractinian coral Stylophora pistillata” (Bioorg Med Chem Lett, 2011)
